In article PMC3315833 (Tetrahedron, 2012):
pIC50: −log10 of the molar value.

How the values were obtained:
HT-29 colon cancer cells = test: Cytotoxicity against HT-29 cells; conditions: read-out: IC50, cytotoxicity against HT-29 cells
[1] = tested on: MCF-7 breast cancer cells; test: Cytotoxicity against MCF-7 cells; conditions: read-out: IC50, cytotoxicity against MCF-7 cells
[2] = Structural stability in DMSO-d6; assay type: physicochemical

structural stability in DMSO-d6 [2] | SMILES | pIC50 (HT-29 colon cancer cells) | pIC50 [1]
 | C=C[C@]1(C)CC[C@H]2C(=C1C#N)c1c([nH]c3ccccc13)C2(C)C (relative stereo) [Compound 2, deschloro 12-epi-fischerindole I nitrile] | 4.64 | < 4.40
structurally unstable | C=C[C@]1(C)[C@H](Cl)Cc2cc(C)c3[nH]c4ccccc4c3c2[C@@H]1C#N (relative stereo) [Compound 3, 12-epi-fischerindole W nitrile] |  | 
structurally unstable | C=C[C@]1(C)CCc2cc(C)c3[nH]c4ccccc4c3c2[C@@H]1C#N (relative stereo) [Compound 4, deschloro 12-epi-fischerindole W nitrile] |  | 
